Among the data in patent US10669242B2 (priority 2016, dated 2020) are IC50 values, retold here.

What is called IC50 is the concentration at which inhibition is half-maximal.

T1 sequence (P18177 1-543): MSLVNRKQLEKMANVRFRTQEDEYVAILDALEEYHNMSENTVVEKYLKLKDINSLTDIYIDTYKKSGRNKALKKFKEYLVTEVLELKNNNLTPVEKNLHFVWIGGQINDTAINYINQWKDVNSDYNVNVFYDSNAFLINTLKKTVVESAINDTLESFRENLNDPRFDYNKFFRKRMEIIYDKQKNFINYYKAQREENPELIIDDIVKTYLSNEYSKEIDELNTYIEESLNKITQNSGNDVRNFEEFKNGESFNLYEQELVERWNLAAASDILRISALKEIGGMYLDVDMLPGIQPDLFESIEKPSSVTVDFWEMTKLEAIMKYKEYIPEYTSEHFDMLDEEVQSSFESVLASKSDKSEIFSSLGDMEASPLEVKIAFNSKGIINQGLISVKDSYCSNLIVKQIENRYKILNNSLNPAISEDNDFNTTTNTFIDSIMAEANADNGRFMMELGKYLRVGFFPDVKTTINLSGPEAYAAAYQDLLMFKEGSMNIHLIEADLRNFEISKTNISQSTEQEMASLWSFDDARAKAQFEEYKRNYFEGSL

The test addresses T1, recombinant glucosyltransferase domain of C. difficile Toxin B/TcdB (Clostridioides difficile, UniProt P18177).
T1 construct: 6-His (C); purchased R&D Systems 6246-GT
The test can be described thus: biochemical.
On to `COc1ccc(NC(=O)c2ccc(CN3C(=O)c4ccc(Cl)cc4NC(=O)[C@H]3Cc3ccccn3)s2)nc1` [Example 4br, (R)-5-((8-chloro-2,5-dioxo-3-(pyridin-2-ylmethyl)-2,3-dihydro-1H-benzo[e][1,4]diazepin-4(5H)-yl)methyl)-N-(5-methoxypyridin-2-yl)thiophene-2-carboxamide], for which the IC50 lay within 100 to 999 nM.

With `CNC(=O)c1cccc(-c2cc(CN3C(=O)c4ccc(Cl)cc4NC(=O)[C@H]3Cc3ccccn3)ccc2C(=O)O)c1` [Example 8p, (R)-5-((8-chloro-2,5-dioxo-3-(pyridin-2-ylmethyl)-2,3-dihydro-1H-benzo[e][1,4]diazepin-4(5H)-yl)methyl)-3′-(methylcarbamoyl)-[1,1′-biphenyl]-2-carboxylic acid], the IC50 is 100 to 999 nM.

`Cc1ccc(NC(=O)c2ccc(CN3C(=O)c4ccc(Cl)cc4NC(=O)[C@H]3Cc3cscn3)cc2)nc1` [Example 4al, (R)-4-((8-chloro-2,5-dioxo-3-(thiazol-4-ylmethyl)-2,3-dihydro-1H-benzo[e][1,4]diazepin-4(5H)-yl)methyl)-N-(5-methylpyridin-2-yl)benzamide]: the IC50 is < 100 nM.

On to `O=C(Nc1ccccn1)c1cccc(S(=O)(=O)N2Cc3ccc(Cl)cc3NC(=O)[C@H]2Cc2ccccn2)c1` [Example 19j, (R)-3-((8-chloro-2-oxo-3-(pyridin-2-ylmethyl)-2,3-dihydro-1H-benzo[e][1,4]diazepin-4(5H)-yl)sulfonyl)-N-(pyridin-2-yl)benzamide], for which the IC50 lay within 10000 to 35000 nM.

With `Cc1cnc(NC(=O)c2ccc(CN3C(=O)c4ccc(Cl)cc4NC(=O)[C@H]3Cc3ccccn3)s2)nc1` [Example 5s, (R)-5-((8-chloro-2,5-dioxo-3-(pyridin-2-ylmethyl)-2,3-dihydro-1H-benzo[e][1,4]diazepin-4(5H)-yl)methyl)-N-(5-methylpyrimidin-2-yl)thiophene-2-carboxamide], the IC50 fell in the range of 100 to 999 nM.

On to `C[C@H]1C(=O)Nc2cc(Cl)ccc2C(=O)N1Cc1ccc(C(=O)Nc2ccccn2)cc1` [Example 4f, (S)-4-((8-chloro-3-methyl-2,5-dioxo-2,3-dihydro-1H-benzo[e][1,4]diazepin-4(5H)-yl)methyl)-N-(pyridin-2-yl)benzamide], for which the IC50 was < 100 nM.

As to `O=C1Nc2cc(Cl)ccc2C(=O)N(C[C@H]2CC[C@H](C(=O)c3cccc4cccnc34)CC2)[C@@H]1Cc1ccccn1` [Example 33a, (R)-8-Chloro-3-(pyridin-2-ylmethyl)-4-(((1r,4R)-4-(quinoline-8-carbonyl)cyclohexyl)methyl)-3,4-dihydro-1H-benzo[e][1,4]diazepine-2,5-dione], the IC50 lay in the range of 10000 to 35000 nM.

In the case of `O=C1Nc2cc(Cl)ccc2C(=O)N(Cc2ccc(CO)cc2)[C@@H]1Cc1ccccn1` [Example 41a, 8-Chloro-4-(4-(hydroxymethyl)benzyl)-3-(pyridin-2-ylmethyl)-3,4-dihydro-1H-benzo[e][1,4]diazepine-2,5-dione], the IC50 fell in the range of 1000 to 10000 nM.

As to `Cc1ccc(C(=O)N[C@H]2CC[C@H](CN3C(=O)c4ccc(Cl)cc4NC(=O)[C@H]3Cc3ccccn3)CC2)nc1` [Example 25a, N-((1R,4r)-4-(((R)-8-Chloro-2,5-dioxo-3-(pyridin-2-ylmethyl)-2,3-dihydro-1H-benzo[e][1,4]diazepin-4(5H)-yl)methyl)cyclohexyl)-5-methylpicolinamide], the IC50 is 100 to 999 nM.

Turning to `O=C(O)c1ccc(CN2C(=O)c3ccc(Cl)cc3NC(=O)[C@H]2Cc2ccccn2)cc1NC(=O)C1CCOCC1` [Example 22m], the IC50 fell in the range of 100 to 999 nM.

As to `O=C(O)c1ccc(CN2C(=O)c3ccc(Cl)cc3NC(=O)[C@H]2Cc2ccccn2)cc1-c1ccncc1` [Example 8a, (R)-4-((8-Chloro-2,5-dioxo-3-(pyridin-2-ylmethyl)-2,3-dihydro-1H-benzo[e][1,4]diazepin-4(5H)-yl)methyl)-2-(pyridin-4-yl)benzoic Acid], the IC50 is 100 to 999 nM.

For `O=C1Nc2cc(Cl)ccc2C(=O)N(Cc2ccc(C(=O)n3ccc4cccnc43)c(Cl)c2)[C@@H]1Cc1ccccn1` [Example 4ab, (R)-8-chloro-4-(3-chloro-4-(1H-pyrrolo[2,3-b]pyridine-1-carbonyl)benzyl)-3-(pyridin-2-ylmethyl)-3,4-dihydro-1H-benzo[e][1,4]diazepine-2,5-dione], the IC50 was < 100 nM.

In the case of `CC(C)[C@@H]1C(=O)Nc2cc(Cl)ccc2C(=O)N1Cc1ccc(C(=O)O)cc1` [Example 3k], the IC50 fell in the range of 100 to 999 nM.

`Cc1cccc(C[C@@H]2C(=O)Nc3cc(Cl)ccc3C(=O)N2Cc2ccc(C(=O)Nc3ccccn3)cc2)c1` [Example 4aj, (R)-4-((8-chloro-3-(3-methylbenzyl)-2,5-dioxo-2,3-dihydro-1H-benzo[e][1,4]diazepin-4(5H)-yl)methyl)-N-(pyridin-2-yl)benzamide]: the IC50 lay in the range of 100 to 999 nM.

On to `O=C(Nc1ncccc1F)c1ccc(CN2C(=O)c3ccc(Cl)cc3NC(=O)[C@H]2Cc2ccccn2)cc1Cl` [Example 5ac, (R)-2-chloro-4-((8-chloro-2,5-dioxo-3-(pyridin-2-ylmethyl)-2,3-dihydro-1H-benzo[e][1,4]diazepin-4(5H)-yl)methyl)-N-(3-fluoropyridin-2-yl)benzamide], for which the IC50 was < 100 nM.

Take `O=C(CO)Nc1ccc(CN2C(=O)c3ccc(Cl)cc3NC(=O)[C@H]2Cc2ccccn2)cc1` [Example 27b]: the IC50 was 100 to 999 nM.

On to `O=C1Nc2cc(Cl)ccc2C(=O)N(C[C@H]2CC[C@H](C(=O)N3CCCc4cccnc43)CC2)[C@@H]1Cc1ccccn1` [Example 4ch, (R)-8-chloro-3-(pyridin-2-ylmethyl)-4-(((1r,4R)-4-(1,2,3,4-tetrahydro-1,8-naphthyridine-1-carbonyl)cyclohexyl)methyl)-3,4-dihydro-1H-benzo[e][1,4]diazepine-2,5-dione], for which the concentration for half-maximal inhibition (IC50) was 10000 to 35000 nM.

With `O=C(Nc1ccccn1)c1ccc(CN2C(=O)c3cccc(Cl)c3NC(=O)[C@H]2Cc2cccnc2)cc1` [Example 35i], the IC50 lay within 1000 to 10000 nM.

`COCC(=O)Nc1cccc(CN2C(=O)c3ccc(Cl)cc3NC(=O)[C@H]2Cc2ccccn2)c1` [Example 28b]: the IC50 lay in the range of 1000 to 10000 nM.

`N#Cc1cccc(C[C@@H]2C(=O)Nc3cc(Cl)ccc3C(=O)N2Cc2ccc(C(=O)Nc3ccccn3)cc2)c1` [Example 4ak, (R)-4-((8-chloro-3-(3-cyanobenzyl)-2,5-dioxo-2,3-dihydro-1H-benzo[e][1,4]diazepin-4(5H)-yl)methyl)-N-(pyridin-2-yl)benzamide]: the IC50 was < 100 nM.

For the molecule `O=C(Nc1ccc(F)cn1)c1ccc(CN2C(=O)c3ccc(Cl)cc3NC(=O)[C@H]2Cc2ccccn2)cc1F` [Example 6c, (R)-4-((8-chloro-2,5-dioxo-3-(pyridin-2-ylmethyl)-2,3-dihydro-1H-benzo[e][1,4]diazepin-4(5H)-yl)methyl)-2-fluoro-N-(5-fluoropyridin-2-yl)benzamide], the IC50 was < 100 nM.

For the molecule `O=C(O)c1ccc(CN2C(=O)c3ccc([N+](=O)[O-])cc3NC(=O)[C@H]2Cc2ccc(Cl)c(Cl)c2)cc1` [Example 2h], the IC50 lay in the range of 1000 to 10000 nM.

In the case of `CS(=O)(=O)NC(=O)c1ccc(CN2C(=O)c3ccc(Cl)cc3NC(=O)[C@H]2Cc2cccnc2)cc1` [Example 15b, (R)-4-((8-chloro-2,5-dioxo-3-(pyridin-3-ylmethyl)-2,3-dihydro-1H-benzo[e][1,4]diazepin-4(5H)-yl)methyl)-N-(methylsulfonyl)benzamide], the IC50 lay within 1000 to 10000 nM.

`O=C(Nc1cc(CN2C(=O)c3ccc(Cl)cc3NC(=O)[C@H]2Cc2ccccn2)ccc1C(=O)O)c1cccnc1` [Example 22g]: the IC50 was 1000 to 10000 nM.

For the molecule `CC(C)(C)OC(=O)N1CCN(c2ccc(NC(=O)c3ccc(CN4C(=O)c5ccc(Cl)cc5NC(=O)[C@H]4Cc4ccccn4)cc3)nc2)CC1` [Example 4aw, (R)-tert-butyl 4-(6-(4-((8-chloro-2,5-dioxo-3-(pyridin-2-ylmethyl)-2,3-dihydro-1H-benzo[e][1,4]diazepin-4(5H)-yl)methyl)benzamido)pyridin-3-yl)piperazine-1-carboxylate], the IC50 lay in the range of 100 to 999 nM.

As for `O=C1Nc2cc(Cl)ccc2C(=O)N(Cc2ccc(C(O)c3ccccn3)cc2)[C@@H]1Cc1ccccn1` (stereo partly drawn) [Example 51a, (3R)-8-Chloro-4-(4-(hydroxy(pyridin-2-yl)methyl)benzyl)-3-(pyridin-2-ylmethyl)-3,4-dihydro-1H-benzo[e][1,4]diazepine-2,5-dione], the IC50 was in the range of 1000 to 10000 nM.

Take `O=C(O)c1ccc(CN2C(=O)c3ccc(Br)cc3NC(=O)[C@H]2Cc2cccnc2)cc1` [Example 1g]: the IC50 fell in the range of 1000 to 10000 nM.

Take `O=C(O)c1ccc(CN2C(=O)c3ccc(Cl)cc3NC(=O)[C@H]2Cc2ccccn2)cc1-c1ccccc1` [Example 8e, (R)-5-((8-chloro-2,5-dioxo-3-(pyridin-2-ylmethyl)-2,3-dihydro-1H-benzo[e][1,4]diazepin-4(5H)-yl)methyl)-[1,1′-biphenyl]-2-carboxylic acid]: the IC50 lay in the range of 100 to 999 nM.

Consider `Nc1ccc(CN2C(=O)c3ccc(Cl)cc3NC(=O)[C@H]2Cc2ccccn2)cc1` [Example 23a, (R)-4-(4-Aminobenzyl)-8-chloro-3-(pyridin-2-ylmethyl)-3,4-dihydro-1H-benzo[e][1,4]diazepine-2,5-dione], for which the IC50 lay within 1000 to 10000 nM.

Regarding `CC(=O)Nc1cccc(-c2cc(CN3C(=O)c4ccc(Cl)cc4NC(=O)[C@H]3Cc3ccccn3)ccc2C(=O)O)c1` [Example 8q, (R)-3′-acetamido-5-((8-chloro-2,5-dioxo-3-(pyridin-2-ylmethyl)-2,3-dihydro-1H-benzo[e][1,4]diazepin-4(5H)-yl)methyl)-[1,1′-biphenyl]-2-carboxylic acid], the IC50 was in the range of 100 to 999 nM.

Consider `C[C@H]1C(=O)Nc2cc(Cl)ccc2C(=O)N1Cc1ccc(C(=O)O)cc1` [Example 3b], for which the IC50 fell in the range of 10000 to 35000 nM.

As for `Cn1cnc(C(=O)[C@H]2CC[C@H](CN3C(=O)c4ccc(Cl)cc4NC(=O)[C@H]3Cc3ccccn3)CC2)c1` [Example 33d], the IC50 lay in the range of 100 to 999 nM.

Take `O=C(Nc1ccccn1)c1ccc(CN2C(=O)c3ccc(Cl)cc3NC(=O)[C@H]2CCc2ccccc2)cc1` [Example 4g, (R)-4-((8-chloro-2,5-dioxo-3-phenethyl-2,3-dihydro-1H-benzo[e][1,4]diazepin-4(5H)-yl)methyl)-N-(pyridin-2-yl)benzamide]: the IC50 is 1000 to 10000 nM.
